Measurements taken from BindingDB's records for doi:10.1016/j.bioorg.2013.11.005 (Sastra University, 2014).

Experiments:
[1] = target: Ribonuclease pancreatic (Bos taurus) (UniProt P61823)
Angiogenin = Angiogenin (Homo sapiens, UniProt P03950); test: Inhibition Kinetics with Angiogenin; details: pH 6
Procedure: The assay was carried out in oligovinylsulfonic acid free 0.1 M Mes-NaOH buffer (pH 6.0) containing 0.1 M NaCl using substrate concentration from 20 to 122 nM. The concentration of compounds 2, 3, 4 and 5 ranged from 0 to 0.8, 0 to 1.2, 0 to 1.2 and 0 to 2.5 mM, respectively. The angiogenin concentration was 0.36 µM.

Chain of Ribonuclease pancreatic (Bos taurus) (P61823 whole entry, looked up): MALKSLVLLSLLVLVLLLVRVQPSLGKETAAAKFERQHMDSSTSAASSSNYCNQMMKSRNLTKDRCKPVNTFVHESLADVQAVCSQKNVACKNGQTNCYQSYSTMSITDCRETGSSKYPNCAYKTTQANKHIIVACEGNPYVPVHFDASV
Chain of Angiogenin (P03950 whole entry): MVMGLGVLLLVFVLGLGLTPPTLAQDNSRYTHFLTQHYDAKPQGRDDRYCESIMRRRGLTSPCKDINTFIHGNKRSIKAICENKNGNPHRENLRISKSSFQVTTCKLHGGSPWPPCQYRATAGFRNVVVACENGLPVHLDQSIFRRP

Row | Ki [1] [µM] | Ki (Angiogenin) [µM] | Compound
1 | 380 | 1110 | Cc1cn([C@H]2C[C@@H](NC(=O)CC(=O)O)[C@@H](CO)O2)c(=O)[nH]c1=O [N-[2-Hydroxymethyl-5-(5-methyl-2,4-dioxo-3,4-dihydro-2H-pyrimidin-1-yl)-tetrahydro-furan-3-yl]-malonamic acid (Compound 6)]
2 | 132 | 775 | Cc1cn([C@H]2C[C@@H](NC(=O)C(=O)O)[C@@H](CO)O2)c(=O)[nH]c1=O [N-[2-Hydroxymethyl-5-(5-methyl-2,4-dioxo-3,4-dihydro-2H-pyrimidin-1-yl)-tetrahydro-furan-3-yl]-oxalamic acid (Compound 5)]
3 | 80 | 427 | Cc1cn([C@H]2C[C@@H](NC(=O)C(N)CO)[C@@H](CO)O2)c(=O)[nH]c1=O (stereo partly drawn) [Ser-aT (Compound 2)]
4 | 451 | 1250 | Cc1cn([C@H]2C[C@@H](NC(=O)C(N)Cc3ccc(O)cc3)[C@@H](CO)O2)c(=O)[nH]c1=O (stereo partly drawn) [Tyr-aT (Compound 3)]
